This is an account of results in article PMC8541314, “Production and Purification of Two Bioactive Antimicrobial Peptides Using a Two-Step Approach Involving an Elastin-Like Fusion Tag” (Pharmaceuticals, 2021).

What is called MIC is the lowest concentration found to suppress growth.

The subject of data set [1] is S. aureus ATCC6538. The data set is described as follows: Broth microdilution MIC / growth inhibition. The following applies: 18 h at 37 °C; for MIC: S. aureus ATCC6538, broth microdilution in MHB, OD600nm, at least three independent replicates, range 0.39–100 mg/L; for growth inhibition (complete inhibition): S. aureus, within tested range 0.39–100 mg/L. The data set is classed as cell-based, Staphylococcus aureus. How it is done:
(§1) The antibacterial activity of free CM4 and Synoeca was evaluated by determination of the minimum inhibitory concentration (MIC) against Gram-negative (E. coli HB101, P. aeruginosa ATCC10145, B. cenocepacia IST439, B. cenocepacia IST4113, and K. pneumoniae) and Gram-positive (S. aureus ATCC6538 and S. epidermidis) bacteria. The AMPs were incubated with bacterial suspensions and assessed for bacterial growth, with the MIC defined as the lowest concentration of AMPs that inhibited the visible growth of bacteria (Figure 5).
(§2) E. coli XL1-Blue and BL21(DE3) strains were used for the cloning and production steps, respectively. E. coli HB101, S. aureus ATCC6538, P. aeruginosa ATCC10145, B. cenocepacia IST439, B. cenocepacia IST4113, and clinical isolates of K. pneumoniae and S. epidermidis were used in the broth microdilution MIC assays. The clonal variants of B. cenocepacia were isolated, with a 3-year difference, from the same cystic fibrosis (CF) patient.
(§3) The antibacterial activity of the isolated AMPs was assessed via broth microdilution method to determine the MIC against clinically relevant Gram-negative and Gram-positive bacteria—E. coli HB101, P. aeruginosa ATCC10145, B. cenocepacia IST439, B. cenocepacia IST4113, K. pneumoniae isolate, S. aureus ATCC6538 and S. epidermidis isolate—following the European Committee on Antimicrobial Susceptibility Testing (EUCAST) and the Clinical Laboratory Standards Institute (CLSI) guidelines. A detailed description of the method is provided by Wiegand et al.. Briefly, stock solutions of 2 mg/mL of AMP in sterile mQ water were used for the preparation of two-fold serial dilutions in MHB, to obtain final testing concentrations within the range of 0.39–100 mg/L (200 mg/L for B. cenocepacia strains). For the MIC assays, 50 μL of protein solution and 50 μL of bacterial suspensions in MHB (1 × 10^6 CFUs/mL) were mixed in 96-well plates (Nunc™ Edge 2.0 96-well plates, Thermo Scientific™, Waltham, Massachusetts, EUA) and incubated for 18 h at 37 °C. Growth inhibition was assessed by measuring optical density at 600 nm (OD600nm). The MIC was determined as the lowest concentration of antimicrobial peptide that inhibited the visible growth of the testing bacteria. At least three independent replicates were performed for each peptide and bacterial strain. Data were analysed by GraphPad Prism 6 Software (GraphPad Software, Inc., La Jolla, CA, USA).
(In general: Broth dilution looks for growth in wells or tubes with falling amounts of substance.)

The test system of data set [2] is B. cenocepacia IST4113. The experiment in a line: Broth microdilution MIC / growth inhibition. Format: cell-based, Burkholderia cenocepacia. Particulars: 18 h at 37 °C, OD600nm; for MIC: broth microdilution in MHB, at least three independent replicates, range up to 200 mg/L. How it is done: as §1, §2, §3
In data set [3] the test system is B. cenocepacia IST439. The experiment in a line: Broth microdilution MIC / growth inhibition. The data set is classed as cell-based, Burkholderia cenocepacia. Particulars: 18 h at 37 °C, OD600nm; for MIC: broth microdilution in MHB, at least three independent replicates, range up to 200 mg/L. How it is done:
as §1, §2, §3

The subject of data set [4] is E. coli HB101. The data set is described as follows: Broth microdilution MIC / growth inhibition. Format: cell-based, Escherichia coli. The following applies: 18 h at 37 °C; for MIC: E. coli HB101, broth microdilution in MHB, OD600nm, at least three independent replicates, range 0.39–100 mg/L; for growth inhibition (complete inhibition): E. coli, within tested range 0.39–100 mg/L. How it is done: as §1, §2, §3

For data set [5], the system named is P. aeruginosa ATCC10145. The experiment in a line: Broth microdilution MIC / growth inhibition. Particulars: 18 h at 37 °C, OD600nm; for MIC: P. aeruginosa ATCC10145, broth microdilution in MHB, at least three independent replicates, range 0.39–100 mg/L; for mean value of growth inhibition: P. aeruginosa. Format: cell-based, Pseudomonas aeruginosa. As for the experimental part:
as §1, §2, §3

The test system of data set [6] is mammalian cells. Particulars: cited from earlier work. From the text:
In this work, we report the use of A200 as a thermoresponsive protein tag for the production and purification of the following two AMPs, using Escherichia coli as a cell factory: ABP-CM4 (CM4), a 35 amino acid antimicrobial peptide, isolated from the haemolymph of the silkworm Bombyx mori; and Synoeca-MP (Synoeca), a 14 amino acid antimicrobial peptide, isolated from the venom of the Synoeca surinama wasp. CM4 is a member of the cecropin family of peptides, with antibacterial, antifungal, and antitumor activities, while showing no toxicity towards mammalian cells [[26],[28],[29], ...

Data set [7] deals with S. epidermidis isolate. The data set is described as follows: Broth microdilution MIC / growth inhibition. Format: cell-based, Staphylococcus epidermidis. The following applies: 18 h at 37 °C; for MIC: S. epidermidis clinical isolate, broth microdilution in MHB, OD600nm, at least three independent replicates, range 0.39–100 mg/L; for growth inhibition (complete inhibition): S. epidermidis, within tested range 0.39–100 mg/L. How it is done:
as §1, §2, §3

In data set [8] the test system is K. pneumoniae isolate. The data set is described as follows: Broth microdilution MIC / growth inhibition. Format: cell-based, Klebsiella pneumoniae. Particulars: 18 h at 37 °C, OD600nm; for MIC: K. pneumoniae clinical isolate, broth microdilution in MHB, at least three independent replicates, range 0.39–100 mg/L. As for the experimental part: as §1, §2
as §3, with “For the MIC assays, 50 μL of protein solution and 50 μL of bacterial suspensions in MHB (1 × 10^6 CFUs/mL) were mixed in 96-well plates (Nunc™ Edge 2.0 96-well plates, Thermo Scientific™, Waltham, Massachusetts, EUA) and incubated for 18 h at 37 °C.” left out, “At least three independent replicates were performed for each peptide and bacterial strain.” left out

Turning to Synoeca-MP, the MIC in data set [1] was 1.56 mg/L; in data set [2], 12.50 mg/L; in data set [3] it was 12.50 mg/L; in data set [4], 25.00 mg/L; in data set [5], above 100.00 mg/L; in data set [7] it was 6.25 mg/L. For the same substance, the minimum inhibitory concentration (MIC) in data set [8] is recorded as above 100.00 mg/L. Also, the “growth inhibition (complete inhibition)” value in data set [1], in data set [4] and in data set [7] was 100% throughout. The “mean value of growth inhibition” value is reported as “lower than 5%” in data set [5] (within tested range 0.39–100 mg/L) and “lower than 5%” in data set [8] (K. pneumoniae, within tested range 0.39–100 mg/L). The “cytotoxicity against mammalian cell lines” value in data set [6] (mammalian cell lines) is “no significant cytotoxicity”.
In the case of ABP-CM4, the MIC is 3.13 mg/L in data set [1]; 200.00 mg/L in data set [2]; around 200.00 mg/L in data set [3]; 50.00 mg/L in data set [4]; above 100.00 mg/L in data set [5]; 12.50 mg/L in data set [7]. This substance had an MIC in data set [8] of 50.00 mg/L. The “growth inhibition (complete inhibition)” value in data set [1], in data set [4] and in data set [7] was 100% each time. Also, the growth inhibition result in data set [2] (peptide 100.00 mg/L) and in data set [3] (peptide 100.00 mg/L) was “around 75%” each time. Also, the “mean value of growth inhibition” value stood at 100% in data set [2] (peptide 200.00 mg/L) and 25% in data set [5] (peptide 100.00 mg/L). Besides, in data set [6] (mammalian cells), the “toxicity towards mammalian cells” value is recorded as “no toxicity”.
